Values of other authors as cited in patent US11951104B2 (LIVZON PHARMACEUTICAL GROUP INC, priority 2018, dated 2024).

How the values were obtained:
5-HT2A receptors = 5-HT2A receptors (Homo sapiens, UniProt P28223); settings: background
5-HT1A receptors = target: T1, 5-HT1A receptors (Homo sapiens, UniProt P08908); settings: background
T1 sequence (P08908 1-422): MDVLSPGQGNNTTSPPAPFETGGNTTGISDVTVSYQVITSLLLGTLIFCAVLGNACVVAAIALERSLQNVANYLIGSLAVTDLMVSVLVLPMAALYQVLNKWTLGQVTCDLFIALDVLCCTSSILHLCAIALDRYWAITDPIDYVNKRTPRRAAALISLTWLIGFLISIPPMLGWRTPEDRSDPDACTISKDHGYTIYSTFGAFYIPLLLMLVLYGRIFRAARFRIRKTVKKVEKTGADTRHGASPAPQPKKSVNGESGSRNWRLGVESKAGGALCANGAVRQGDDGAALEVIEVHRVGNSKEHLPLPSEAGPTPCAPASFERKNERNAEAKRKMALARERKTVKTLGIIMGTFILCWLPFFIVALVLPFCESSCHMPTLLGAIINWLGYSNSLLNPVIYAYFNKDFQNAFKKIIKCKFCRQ

5-HT2A receptors, sequence (P28223 whole entry): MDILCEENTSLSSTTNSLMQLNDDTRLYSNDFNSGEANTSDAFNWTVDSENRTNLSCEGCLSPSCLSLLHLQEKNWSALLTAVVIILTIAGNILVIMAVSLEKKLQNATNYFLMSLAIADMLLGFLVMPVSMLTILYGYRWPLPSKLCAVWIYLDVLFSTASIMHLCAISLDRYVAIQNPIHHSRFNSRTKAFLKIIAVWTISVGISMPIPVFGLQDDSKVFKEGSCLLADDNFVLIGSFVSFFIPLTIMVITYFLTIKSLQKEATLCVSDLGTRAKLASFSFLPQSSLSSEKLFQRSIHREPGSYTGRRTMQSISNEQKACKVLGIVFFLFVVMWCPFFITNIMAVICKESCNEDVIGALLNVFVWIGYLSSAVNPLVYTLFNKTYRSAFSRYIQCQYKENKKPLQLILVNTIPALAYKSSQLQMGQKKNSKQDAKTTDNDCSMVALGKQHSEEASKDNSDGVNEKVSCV

O=C1CCc2ccc(OCCCCN3CCN(c4cccc(Cl)c4Cl)CC3)cc2N1 [aripiprazole]
affinity for 5-HT2A receptors (5-HT2A receptors): high affinity
affinity for 5-HT1A receptors (5-HT1A receptors): high affinity
